Key:
Hep3B orthotopic tumors = test: Orthotopic Hep3B xenografts in CB17 SCID mice, tumor mass; format: in vivo, mouse
Source text: For in vivo studies, an implanted mouse model of human HCC was generated in CB17SCID mice (Taconic, Hudson, N.Y.). Female mice between 4 and 5 weeks in age were purchased and acclimatized in M.D. Anderson Animal facilities for up to one week. All animals were handled, housed and studied in accordance with the Institutional Animal Care and Use Committee. Tumors were generated after orthotopic implantation of approximately 1.6 million cells into the liver of each mouse (10 mice per group). Bioluminescence imaging indicated tumor development in the majority of mice three weeks after implantation. Euthanasia was performed by carbon dioxide inhalation followed by cervical spine dislocation.
Cultured luciferase and GFP-expression human HCC cell lines (Hep3B and HepG2) were harvested from an exponentially growing culture and washed with PBS. The cells were re-suspended in 3 ml PBS and final centrifugation was performed at 1000 RPM for 5 minutes. Supernatant was discarded and the cell pellet was used for implantation. The concentration of cells achieved using this protocol was 160,000 cells per micro liter. The cells were kept on ice and animals were injected within 3-4 hours after final centrifugation.
Before surgery, hair was removed from the ventral surface of the abdomen using clippers. Mice were anesthetized using 2.5% isoflurane. The surgical field was sterilized with 70% (v/v) ethanol in water. Mice were placed supine on a heating pad and the surgical site was sterilized using povidone iodine swab sticks. After confirming induction of anesthesia, an approximately 1-cm transverse incision was made in the skin of the upper abdomen slightly left of the midline. Deeper layers of muscle and peritoneum were incised and hemostasis was achieved using silver nitrate chemical cautery sticks. By applying gentle pressure on the lower abdomen and lower chest, the left lobe of the liver was eviscerated. […]
Mice with confirmed tumors on bioluminescence were then randomized in groups of 10. […] Sample size was calculated using Stata SE 12.1 for Mac (College Station, Tex.). […]

[1] = tested on: γ-H2AX foci in Hep3B cells; test: γ-H2AX foci in Hep3B cells (immunocytochemistry, confocal); format: cell-based, human
Experimental: Approximately 50,000 cells were seeded in each well of a 12-well plate and grown on circular #1.5 cover slips (Electron Microscopy Sciences, Hatfield, Pa.). After 24 hours, cells were exposed to various treatment conditions as described herein. At the end of treatment, cells were fixed, permeabilized, blocked, labeled with primary antibody, and then with secondary antibody in consecutive steps. For confocal imaging, Fluoview—FV1000 Olympus Confocal Microscope (Center Valley, Pa.) was used.
For immunocytochemistry assay, an indirect immunofluorescence approach was used. Circular #1.5 cover slips (Electron microscopy sciences, Hatfield, Pa.) were placed in 12-well plates and sterilized using a 20-minute UV exposure. Cells from an exponentially growing culture were counted and approximately 50,000 cells were seeded in each well of a 12-well plate. Adherent sub-confluent monolayers were observed growing on the cover slip 24 hours later. At this point, cells were exposed to various treatment conditions as described herein. At the end of treatment, immunolabeling of proteins being studied was performed. Cells were fixed, permeablized, blocked, labeled with primary antibody and then with secondary antibody in consecutive steps. Between each step, cells were washed with PBS three times for 5 minutes each time on a leveled shaker at 50 RPM. Cells were fixed with 1% paraformaldehyde in PBS (w/v) for 30 minutes. Permeablization was performed using 0.3% (v/v) Triton-100 and 0.125% (w/v) CHAPS (3-[(3-Cholamidopropyl) dimethylammonio]-1-propanesulfonate) dissolved in PBS for 15 minutes. […] Primary and secondary antibodies were diluted in the blocking buffer. Incubation with primary antibody was performed over night at 4° C. Secondary antibody incubations were performed for 2 hours at room temperature. […]
The slides were sealed with a conventional nail polish hardener and stored at 4° C. until imaging. […] Exposure settings were set to maximize dynamic range initially and then kept constant across multiple samples to allow quantitative comparisons. […]

Nc1ccn([C@@H]2O[C@H](CO)[C@@H](O)C2(F)F)c(=O)n1 [gemcitabine, 2′,2′-difluoro 2′-deoxycytidine]
Mean tumor mass [±SD] (Hep3B orthotopic tumors; RF then gemcitabine (RF 10 min, 600 W, immediately followed by gemcitabine)): 180 ± 91 mg
Mean tumor mass [±SD] (Hep3B orthotopic tumors; gemcitabine alone, 70 mg/kg/dose twice a week for three weeks): 661 ± 419 mg
Mean tumor mass [±SD] (Hep3B orthotopic tumors; gemcitabine then RF (RF 24 hours later)): 291 ± 126 mg
persistence of γ-H2AX positive cells, gemcitabine and hyperthermia versus either alone ([1]; gemcitabine 100 nM 24 hours, last two hours 42.5° C.): persisted for a longer duration
relative mean (±SD) γ-H2AX pixels per cell ([1]; gemcitabine alone): 1.0±0.26
relative mean (±SD) γ-H2AX pixels per cell ([1]; hyperthermia immediately followed by gemcitabine): 1.0±0.20

— US20170209579A1, “NON-INVASIVE RADIOFREQUENCY FIELD TREATMENT FOR CANCER THERAPY” (Baylor College of Medicine, priority 2014, published 2017)
